These results are taken from PMC6391964, “Radical‐Mediated Thiol‐Ene Strategy: Photoactivation of Thiol‐Containing Drugs in Cancer Cells” (Angewandte Chemie (International Ed. in English), 2018).

In general, GI50 refers to the concentration at which growth is held to half of that of the control.

The subject of series [1] is HCT-116 colon carcinoma cells. The format is cell-based, human. On the procedure: (§1) T a bl e S4. The parallel artific ial membrane permeability assay (PAM PA). […]
(§2) […] The cel l s were s pl it before reac hi ng confl uence w i t h 0. 05% T ry ps i n-ED TA (G i bco™, The rmo Fisher Scientific).
(§3) C ell v ia bility a ssa y
HC T-116 cells suspended in McCoy’s 5A m edium were plated in 96 -w el l pl at es (200 μ L, 2, 500 cells/well), incubated (37 °C, 5% CO2), and 24 h later treated with various concentrations of compou nds or s ol v ent cont rol (0. 25% D M SO). […] […] Cell viability w as cal cul at ed accordi ng t o t he manufact u rer’ s i ns t ruct i ons (Promeg a).
T a bl e S5. GI50 of the L argazole, L argazole Thiol and Stapled L argazole

Series [2] relates to HCT-116 cells. Kind of series: Photoactivation of stapled largazole in HCT-116 cells (cell viability). The format is cell-based, human. As to conditions: stapled largazole 150 nM premixed with DPAP 1.5 μM, UV 365 nm, 80 W, 15 min, then 48 h, compared with non-irradiation, stapled largazole and largazole thiol groups. On the procedure: (§4) Viability Viability Viability
(§5) DPAP Toxicity DPAP+64W-15min DPAP+80W-15min
(§6) Figu r e S7. The DPAP c onc entration and UV c ondition Sc reening. a) The cytotoxicity of DPAP without UV; b) The cytotoxicity of DPAP with UV, 365 nm, 64W, 15 min; c) The cytotoxicity of DPAP with UV, 365 nm, 80W, […]
(§7) P hotoa ctiv a tion of S ta pled La r g a zole in H C T-116 cells
(§8) Plate Cells Compounds UV CellTiter Blue Detect
(§9) Sch eme S6. The phot oact ivat ion of St apled L argazole in HC T- 116 c ells.
(§10) […] […] […] Aft er a not her 48 h of i ncubat i on, t he cel l v i abil it y w as measured according to the general method a bove.
(§11) H istone D ea cety la se ( H D AC ) Activ ity Assa y ( Fluor om etr ic) Following the measurement of the cell viability, the plates were washed with cold PBS for three t i mes. […]
(also on this page, place not known: Condition Screening Figure concentration condition Screening. Photoactivation Stapled Largazole HCT-116 Scheme photoactivation Stapled Largazole HCT-116 cells. HCT-116 cells plated in 200 μL medium per well density 2,500 cells/well grown in plates. incubated oC, 5% CO2). After h, cells various (Largazole, Largazole Thiol Stapled Largazole nM, 1.5 μM) solvent control (0.25% DMSO). group irradiated with light W) min. After another of incubation, viability was above. […]

Series [3] concerns HDAC. Nature of the series: Fluorometric HDAC activity assay with HCT-116 cell lysates. To be noted: UV-irradiated premixed group of stapled largazole and DPAP, relative to control groups and non-irradiation group, Ex/Em 355/460 nm. The format is cell-based, human. On the procedure: as §4, §5, §6, §7, §8, §9, §10, §11
(also on this page, place not known: Condition Screening Figure concentration condition Screening. Photoactivation Stapled Largazole HCT-116 Scheme photoactivation Stapled Largazole HCT-116 cells. HCT-116 cells plated in 200 μL medium per well density 2,500 cells/well grown in plates. incubated oC, 5% CO2). After h, cells various (Largazole, Largazole Thiol Stapled Largazole nM, 1.5 μM) solvent control (0.25% DMSO). group irradiated with light W) min. […]
(Thermo Sci ent i fi c™). […] Aft er be i ng i ncubat ed fo r an ot her 30 mi n at R T, t he fl uores cence i nt ens i t y w as read at Ex /Em = 35 5 n m / 4 60 nm. […]

The nature of series [4]: Parallel artificial membrane permeability assay (PAMPA). It counts as in vitro ADME. As to conditions: PAMPA Evolution, Pion GIT-0 phospholipid mixture, ~50 μM, ~15 h, UV read-out, average of quadruplicates. On the procedure:
[…] […] The effect i v e permeability, Pe, of each compound was measured at the customer -s peci fi ed pHs i n t he dono r compart ment us i ng l ow-bi ndi ng , l ow UV P ri s ma bu ffer. […] The propri et ary s cav eng er mi mi cs s erum prot ei ns and bl ood ci rcul at i on, t hus creat i ng si nk condi t i ons .
I n t he defaul t p rot oc ol t he a queous s ol ut i ons of s t udi ed com poun ds are p repared by di l ut i ng and thoroughly mixing 3 μL of DMSO stock in 600μL of Prisma HT buffer. Final concentration of org ani c s ol v ent (D M SO) i n aqueous buf fer i s ≤ 0. 5 % (v /v ).
The PAM PA s andw i ch was assembl ed and al l owed to i ncubat e for ~15 ho urs . The s ol ut i ons i n t he don or compart ment w ere un- stirred within du ration of t he ex peri ment . Thus , t he t hi ck nes s of t he aqueous bounda ry l ay er ex pect ed t o be about 1000 μ m. […] Ket oprofen, Verapmi l and P ropan ol ol w ere us ed as […]
[…] […] Act ual pH t he bu ffers w as 7. 40 ± 0. 05.
S t o c k sol u ti ons preparation
The samples were diluted with an organic solvent (DMSO) to prepare stock s ol ut i ons at concent rat i on ~10 mM . […] 40 […]
as §1, §2, §3
HC T-116 cells suspended in McCoy’s 5A m edium were plated in 96 -w el l pl at es (200 μ L, 2, 500 […]
A general note: In PAMPA a lipid-coated filter parts donor from acceptor wells.

A short description of series [5]: UV-initiated thiol-ene decaging reaction (HPLC). As to conditions: 1-thio-β-D-glucose tetraacetate and DPAP, UV irradiation 365 nm, 15 minutes; HPLC trace. It counts as physicochemical. An excerpt:
Inspired by this AFCT reaction, we hypothesized that the isobutylene structure could be used as a bridging graft to cage thiol‐containing drugs and allow further controlled activation of anticancer drugs by means of a radical‐mediated thiol‐ene mechanism (Scheme 1). […] Our research began with N‐tert‐butoxycarbonyl‐L‐cysteine methyl ester (N‐Boc‐Cys‐OMe 1), which was protected with 3‐bromo‐2‐bromomethyl‐1‐propene (Table 1 and Supporting Information). The stapled cysteine 2 was then screened under a series of reaction conditions. Firstly, different PIs were tested with the same amounts of thiol source, 1‐thio‐β‐D‐glucose tetraacetate (4AcGlcSH), and 2 under irradiation at 365 nm. […] However, the other PI, 2,2‐dimethoxy‐2‐phenylacetophenone (DPAP) successfully promoted the reaction and released 1. β‐Mercaptoethanol (BME) was also tested as the thiol compound under the same reaction conditions. […] However, when N,N‐dimethylformamide (DMF) was used as solvent, two mixed disulfides resulting from the reaction between the 1‐thioglucose and N‐Boc‐cysteine methyl ester 1′ were observed. […]
The cyclic depsipeptide largazole is a marine natural product, and its derivatives are recognized as promising potential anticancer therapeutics. […] Next, the growth‐inhibitory activity was evaluated with human colon carcinoma cell lines, HCT‐116 (Figure 2 c). […]

Like-named read-outs stand apart in the source and are kept apart here.

On to `CC(C)[C@@H]1NC(=O)[C@]2(C)CSC(=N2)c2csc(n2)CNC(=O)C[C@@H](/C=C/CCS)OC1=O` [largazole thiol], for which, in series [1] (48 h), halving of growth (GI50) required 185 nM.

In series [1] (48 h), `CCCCCCCC(=O)SCC/C=C/[C@@H]1CC(=O)NCc2nc(cs2)C2=N[C@@](C)(CS2)C(=O)N[C@@H](C(C)C)C(=O)O1` [largazole] yielded a GI50 of 1.43 nM.

For `C=C(CSCC/C=C/[C@@H]1CC(=O)NCc2nc(cs2)C2=N[C@@](C)(CS2)C(=O)N[C@@H](C(C)C)C(=O)O1)CSCC/C=C/[C@@H]1CC(=O)NCc2nc(cs2)C2=N[C@@](C)(CS2)C(=O)N[C@@H](C(C)C)C(=O)O1` [stapled largazole], the GI50 in series [1] (HCT-116 cells, 48 h treatment, CellTiter-Blue, read-out: GI50) is 408 nM. Also, the “Cell viability after photoactivation” value in series [2] is reported as “significantly lower cell viability”. Also, the “HDAC activity (fluorescence) after photoactivation” value in series [3] is given as “significant decrease of fluorescence”. In series [4] (donor Prisma HT buffer pH 7.4, acceptor sink buffer pH 7.4, DMSO <0.5%, unstirred), the “logPe (Avg. logPe)” value is recorded as −5.29. In series [4] (donor Prisma HT buffer pH 7.4, acceptor sink buffer pH 7.4, DMSO <0.5%, unstirred, read-out: Pe, effective permeability (Avg. Pe)), the Papp amounted to 5.3 ×10⁻⁶ cm/s. In series [4] (donor pH 7.4, by mass balance), the “Avg. %R, membrane retention” value came to 10%. The “Conversion in the decaging reaction” value in series [5] was “Full conversion”.
